# Experiments:
# Test in all cases: relative viability (nuclei count vs DMSO), 5 days (fraction); higher = more cells survive
# OSI-027 + Trametinib = compound: COc1cccc2cc(-c3nc([C@H]4CC[C@H](C(=O)O)CC4)n4ncnc(N)c34)[nH]c12 [OSI-027] + CC(=O)Nc1cccc(-n2c(=O)n(C3CC3)c(=O)c3c(Nc4ccc(I)cc4F)n(C)c(=O)c(C)c32)c1 [Trametinib] (partner 0.02 µM)
# Outline: (§1)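 Lung cancer cell lines in 1536-well plates got either a single drug or a fixed anchor-drug dose together with five library-drug doses (not always all listed) in √10 steps, by pin tool, on the day after seeding. Nuclei were counted after 5 days, and relative viability is the treated-to-vehicle ratio of nuclei counts. Values are medians of duplicate plates.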
# OSI-027 + Alpelisib = compound: COc1cccc2cc(-c3nc([C@H]4CC[C@H](C(=O)O)CC4)n4ncnc(N)c34)[nH]c12 [OSI-027] + Cc1nc(NC(=O)N2CCC[C@H]2C(N)=O)sc1-c1ccnc(C(C)(C)C(F)(F)F)c1 [Alpelisib] (partner 2 µM)
# Outline: as §1
# Alpelisib + Trametinib = compound: Cc1nc(NC(=O)N2CCC[C@H]2C(N)=O)sc1-c1ccnc(C(C)(C)C(F)(F)F)c1 [Alpelisib] + CC(=O)Nc1cccc(-n2c(=O)n(C3CC3)c(=O)c3c(Nc4ccc(I)cc4F)n(C)c(=O)c(C)c32)c1 [Trametinib] (partner 0.02 µM)
# Outline: as §1
# Alpelisib + Palbociclib = compound: Cc1nc(NC(=O)N2CCC[C@H]2C(N)=O)sc1-c1ccnc(C(C)(C)C(F)(F)F)c1 [Alpelisib] + CC(=O)c1c(C)c2cnc(Nc3ccc(N4CCNCC4)cn3)nc2n(C2CCCC2)c1=O [Palbociclib] (partner 0.5 µM)
# Outline: as §1
Cell Line,relative viability (OSI-027 + Trametinib; first compound 0.01 µM),relative viability (OSI-027 + Trametinib; first compound 0.03162 µM),relative viability (OSI-027 + Trametinib; first compound 0.1 µM),relative viability (OSI-027 + Trametinib; first compound 0.3162 µM),relative viability (OSI-027 + Trametinib; first compound 1 µM),relative viability (OSI-027 + Alpelisib; first compound 0.01 µM),relative viability (OSI-027 + Alpelisib; first compound 0.03162 µM),relative viability (OSI-027 + Alpelisib; first compound 0.1 µM),relative viability (OSI-027 + Alpelisib; first compound 0.3162 µM),relative viability (OSI-027 + Alpelisib; first compound 1 µM),relative viability (Alpelisib + Trametinib; first compound 0.04 µM),relative viability (Alpelisib + Trametinib; first compound 0.1265 µM),relative viability (Alpelisib + Trametinib; first compound 0.4 µM),relative viability (Alpelisib + Trametinib; first compound 1.265 µM),relative viability (Alpelisib + Trametinib; first compound 4 µM),relative viability (Alpelisib + Palbociclib; first compound 0.04 µM),relative viability (Alpelisib + Palbociclib; first compound 0.1265 µM),relative viability (Alpelisib + Palbociclib; first compound 0.4 µM),relative viability (Alpelisib + Palbociclib; first compound 1.265 µM),relative viability (Alpelisib + Palbociclib; first compound 4 µM)
NCI-H1993,0.474,0.548,0.523,0.412,0.505,0.647,0.646,0.562,0.533,0.655,0.539,0.477,0.5,0.483,0.49,0.549,0.637,0.647,0.501,0.465
NCI-H2009,0.272,0.283,0.2,0.196,0.195,1.14,1.14,1.07,0.999,0.568,0.264,0.276,0.28,0.285,0.224,0.235,0.23,0.245,0.215,0.164
NCI-H2023,0.645,0.506,0.435,0.388,0.272,0.608,0.499,0.505,0.34,0.19,0.532,0.452,0.538,0.287,0.208,0.312,0.309,0.326,0.258,0.223
NCI-H2085,0.504,0.514,0.429,0.313,0.281,0.927,0.925,0.835,0.727,0.592,0.57,0.468,0.496,0.495,0.338,0.464,0.484,0.455,0.447,0.446
NCI-H2087,0.194,0.235,0.194,0.154,0.142,1.12,1.21,0.947,0.625,0.398,0.183,0.174,0.195,0.163,0.164,0.301,0.237,0.246,0.257,0.193
NCI-H2126,0.54,0.593,0.526,0.447,0.537,0.764,0.69,0.694,0.603,0.399,0.545,0.504,0.526,0.416,0.381,0.363,0.334,0.345,0.359,0.334
NCI-H2170,1.02,0.901,0.807,0.746,0.267,0.856,0.888,0.593,0.688,0.355,0.91,0.857,0.921,0.666,0.549,0.351,0.337,0.36,0.246,0.21
NCI-H2228,0.409,0.499,0.507,0.326,0.284,0.934,0.808,0.674,,0.546,0.415,0.536,0.399,0.314,0.123,0.748,0.519,0.771,0.332,0.355

# Source: the supplement of paper PMC10307832
